Test: pKa's of phytic acid (ionization of phosphate groups)
Format: physicochemical
Excerpt: A liquid sample was reacted with phytic acid. The reaction between the compounds and the phytic acid was at a pH of 3.0. Phytic acid ionization began via phosphates group in the following order: (a) P1, and P3 at a pH of from about 1.5 to about 2.0; (b) P4 and P6 at a pH of from about 2.0 to about 2.5; (c) P2 and at a pH of about 2 .5; and (d) P5 at a pH of from about 3.0 to about 5.0 (see FIGS. 1 and 2).

In the case of `O=P(O)(O)O[C@H]1[C@H](OP(=O)(O)O)[C@@H](OP(=O)(O)O)[C@H](OP(=O)(O)O)[C@@H](OP(=O)(O)O)[C@H]1OP(=O)(O)O` [phytic acid], the pKa is reported as 9.3.
